The nature of the first data set: log P (HPLC/MS data of the preparation examples). The conditions noted are these: LC-MS, method [b]: pH 2.7 with 0.1% formic acid in water and acetonitrile, linear gradient 10% to 95% acetonitrile.
For the compound `Cc1cccc(C(=NOCc2cccc(N3C(=O)c4ccccc4C3=O)n2)c2ncnn2C)c1` [Example 5], the log p was 3.04^[b]. The same measure, in the same setting: under `Cc1ccccc1C(=NOCc1cccc(N)n1)c1ncnn1C` [Example 6] stands 0.96^[b]; under `Cc1cccc(C(=NOCc2cccc(N)n2)c2ncnn2C)c1` [Example 8], 1.27^[b]. Turning to `Cc1ccccc1C(=NOCc1cccc(N2C(=O)c3ccccc3C2=O)n1)c1ncnn1C` [Example 9], the log p was 2.78^[b]. Still for that read-out and setting: the same measure for `Cc1ccc(C(=NOCc2cccc(N3C(=O)c4ccccc4C3=O)n2)c2ncnn2C)cc1` [Example 10]: 2.92^[b]; for `Cn1ccnc1C(=NOCc1cccc(N)n1)c1ccccc1` [Example 11]: 0.36^[b]. On the same count and under the same terms, under `Cn1ccnc1C(=NOCc1nccc(NC(=O)C(C)(C)C)n1)c1ccccc1` [Example 12] stands 1.77^[b]; under `CCCCCCC(=O)Nc1ccnc(CON=C(c2ccccc2)c2nccn2C)n1` [Example 14], 2.39^[b]; under `CC(C)CC(=O)Nc1ccnc(CON=C(c2ccccc2)c2nccn2C)n1` [Example 15], 1.76^[b]. Regarding `CCCCCC(=O)Nc1ccnc(CON=C(c2ccccc2)c2nccn2C)n1` [Example 16], the log p is 2.1^[b]. As for `Cc1ccc(C(=NOCc2cccc(NC(=O)C3CC3)n2)c2ncnn2C)cc1` [Example 17], the log p was 2.73^[b]. On the same count and under the same terms, under `CCCCCC(=O)Nc1cccc(CON=C(c2ccc(C)cc2)c2ncnn2C)n1` [Example 18] stands 3.71^[b]. Same read-out and setting: under `Cc1ccc(C(=NOCc2cccc(NC(=O)C(C)(C)C)n2)c2ncnn2C)cc1` [Example 19] stands 3.31^[b]; under `Cc1cccc(C(=NOCc2cccc(NC(=O)C3CC3)n2)c2ncnn2C)c1` [Example 20], 2.73^[b]; under `CCCCCC(=O)Nc1cccc(CON=C(c2cccc(C)c2)c2ncnn2C)n1` [Example 21], 3.71^[b]. The same measure, in the same setting: the same measure for `Cc1cccc(C(=NOCc2cccc(NC(=O)C(C)(C)C)n2)c2ncnn2C)c1` [Example 22]: 3.31^[b]; for `Cc1ccccc1C(=NOCc1cccc(NC(=O)C2CC2)n1)c1ncnn1C` [Example 23]: 2.48^[b]; for `CCCCCC(=O)Nc1cccc(CON=C(c2ccccc2C)c2ncnn2C)n1` [Example 24]: 3.46^[b].

As for `Cc1ccccc1C(=NOCc1cccc(NC(=O)C(C)(C)C)n1)c1ncnn1C` [Example 25], the log p was 3.06^[b]. Consider `Cn1ncnc1C(=NOCc1cccc(NC(=O)C(C)(C)C)n1)c1ccccc1` [Example 26], for which the log p is 2.98^[b].

For the compound `Cn1ncnc1C(=NOCc1cccc(NC(=O)C2CC2)n1)c1ccccc1` [Example 27], the log p was 2.41^[b].

In the case of `Cn1ncnc1C(=NOCc1cccc(NC(=O)Cc2ccccc2)n1)c1ccccc1` [Example 29], the log p was 3.06^[b].

For the compound `Cc1ccccc1C(=NOCc1cccc(NC(=O)Cc2ccccc2)n1)c1ncnn1C` [Example 30], the log p was 3.11^[b].

Take `Cc1cccc(C(=NOCc2cccc(NC(=O)Cc3ccccc3)n2)c2ncnn2C)c1` [Example 31]: the log p was 3.35^[b]. For `Cn1ccnc1C(=NOCc1cccc(NC(=O)Cc2ccccc2)n1)c1ccccc1` [Example 32], the log p is 2^[b]. Same read-out and setting: under `CCCCCC(=O)Nc1cccc(CON=C(c2ccccc2)c2nccn2C)n1` [Example 33] stands 2.23^[b]; under `CCCCCOC(=O)Nc1cccc(CON=C(c2ccccc2)c2ncnn2C)n1` [Example 35], 3.96^[b]. On the same count and under the same terms, the same measure for `CC(C)CC(=O)Nc1cccc(CON=C(c2ccccc2)c2nccn2C)n1` [Example 36]: 1.89^[b]; for `CCCCCOC(=O)Nc1cccc(CON=C(c2ccccc2)c2nccn2C)n1` [Example 37]: 2.6^[b]. Take `CCCCCC(=O)Nc1ccnc(CON=C(c2ccc(C)cc2)c2ncnn2C)n1` [Example 38]: the log p was 3.42^[b].

`Cc1ccc(C(=NOCc2nccc(NC(=O)C(C)(C)C)n2)c2ncnn2C)cc1` [Example 39]: the log p is 3.02^[b].

As for `Cc1ccc(C(=NOCc2nccc(NC(=O)C3CC3)n2)c2ncnn2C)cc1` [Example 40], the log p is 2.46^[b]. As to `CCCCCOC(=O)Nc1ccnc(CON=C(c2ccc(C)cc2)c2ncnn2C)n1` [Example 41], the log p was 3.76^[b]. For `COC(=O)CCCC(=O)Nc1cccc(CON=C(c2ccc(C)cc2)c2ncnn2C)n1` [Example 42], the log p is 2.68^[b]. Turning to `COC(=O)CCCC(=O)Nc1cccc(CON=C(c2ccccc2)c2ncnn2C)n1` [Example 43], the log p was 2.39^[b]. `CCCCCOC(=O)Nc1cccc(CON=C(c2ccc(C)cc2)c2ncnn2C)n1` [Example 44]: the log p is 4.31^[b].

As to `CCCCCOC(=O)Nc1cccc(CON=C(c2ccccc2C)c2ncnn2C)n1` [Example 45], the log p is 4.06^[b]. Same read-out and setting: under `Cn1ncnc1C(=NOCc1ncc(C(F)(F)F)cc1Cl)c1ccccc1` [Example 47] stands 3.44^[b]. As for `CCCCCC(=O)Nc1cccc(CON=C(c2cccc(C)c2)c2ncnn2C)n1` [Example 48], the log p was 3.55^[b]. The same measure, in the same setting: the same measure for `Cn1ncnc1C(=NOCc1ccccn1)c1ccccc1` [Example 50]: 1.51^[b]. `Cn1ncnc1C(=NOCc1ccc2ccccc2n1)c1ccccc1` [Example 51]: the log p was 2.51^[b].

With `CCOC(=O)Nc1ccnc(CON=C(c2ccccc2)c2nccn2C)n1` [Example 52], the log p was 1.47^[b]. Still for that read-out and setting: under `COCC(=O)Nc1ccnc(CON=C(c2ccccc2)c2nccn2C)n1` [Example 53] stands 1.2^[b]; under `Cn1ccnc1C(=NOCc1nccc(NC(=O)COCc2ccccc2)n1)c1ccccc1` [Example 54], 2.04^[b]; under `CCCCCOC(=O)Nc1ccnc(CON=C(c2ccccc2)c2nccn2C)n1` [Example 55], 2.28^[b]. Still for that read-out and setting: under `COCCOCC(=O)Nc1ccnc(CON=C(c2ccccc2)c2nccn2C)n1` [Example 56] stands 1.34^[b]; under `C=CCOC(=O)Nc1ccnc(CON=C(c2ccccc2)c2nccn2C)n1` [Example 57], 1.62^[b]; under `CCCC(=O)Nc1ccnc(CON=C(c2ccccc2)c2nccn2C)n1` [Example 58], 1.68^[b].

Regarding `CCCCC(=O)Nc1ccnc(CON=C(c2ccccc2)c2nccn2C)n1` [Example 59], the log p was 1.95^[b].

Consider `Cn1nncc1C(=NOCc1cccc(N)n1)c1ccccc1` [Example 60], for which the log p is 1.11^[b]. For `CC(=O)Nc1ccnc(CON=C(c2ccccc2)c2nccn2C)n1` [Example 62], the log p was 1.13^[b].

On to `CCC(=O)Nc1ccnc(CON=C(c2ccccc2)c2nccn2C)n1` [Example 63], for which the log p is 1.38^[b]. Still for that read-out and setting: the same measure for `Cn1ccnc1C(=NOCc1nccc(NC(=O)CCc2ccccc2)n1)c1ccccc1` [Example 64]: 2.21^[b]; for `CCCCCC(=O)Nc1cccc(CON=C(c2ccccc2)c2cnnn2C)n1` [Example 65]: 3.52^[b]; for `Cn1nncc1C(=NOCc1cccc(NC(=O)C(C)(C)C)n1)c1ccccc1` [Example 66]: 3.11^[b].

For `Cn1nncc1C(=NOCc1cccc(NC(=O)C2CC2)n1)c1ccccc1` [Example 67], the log p is 2.55^[b]. `Cn1nncc1C(=NOCc1cccc(NC(=O)Cc2ccccc2)n1)c1ccccc1` [Example 68]: the log p was 3.19^[b]. Same read-out and setting: the same measure for `CCCCCOC(=O)Nc1cccc(CON=C(c2ccccc2)c2cnnn2C)n1` [Example 69]: 2.46^[b]; for `Cn1nncc1C(=NOCc1nccc(N)n1)c1ccccc1` [Example 70]: 0.96^[b]; for `CCCCCC(=O)Nc1ccnc(CON=C(c2ccccc2)c2cnnn2C)n1` [Example 71]: 3.23^[b].

`CCCCS(=O)(=O)Nc1cccc(CON=C(c2ccccc2)c2ncnn2C)n1` [Example 72]: the log p is 4.21^[b]. As to `CCCCS(=O)(=O)N(c1cccc(CON=C(c2ccccc2)c2ncnn2C)n1)S(=O)(=O)CCCC` [Example 73], the log p is 2.73^[b]. On the same count and under the same terms, under `CCCCS(=O)(=O)Nc1cccc(CON=C(c2ccc(C)cc2)c2ncnn2C)n1` [Example 74] stands 3.04^[b].

As to `CCCCS(=O)(=O)Nc1cccc(CON=C(c2cccc(C)c2)c2ncnn2C)n1` [Example 75], the log p was 3.04^[b]. As to `CCCCS(=O)(=O)Nc1cccc(CON=C(c2ccccc2)c2cnnn2C)n1` [Example 76], the log p was 2.86^[b]. Same read-out and setting: the same measure for `Cn1nncc1C(=NOCc1nccc(NC(=O)C(C)(C)C)n1)c1ccccc1` [Example 77]: 2.77^[b]. For the compound `CCCCS(=O)(=O)N(c1cccc(CON=C(c2ccc(C)cc2)c2ncnn2C)n1)S(=O)(=O)CCCC` [Example 78], the log p is 4.51^[b]. Same read-out and setting: the same measure for `CCCCS(=O)(=O)N(c1cccc(CON=C(c2cccc(C)c2)c2ncnn2C)n1)S(=O)(=O)CCCC` [Example 79]: 4.49^[b]; for `CCCCS(=O)(=O)N(c1cccc(CON=C(c2ccccc2)c2cnnn2C)n1)S(=O)(=O)CCCC` [Example 80]: 4.26^[b]. Still for that read-out and setting: the same measure for `Cn1nncc1C(=NOCc1nccc(NC(=O)Cc2ccccc2)n1)c1ccccc1` [Example 81]: 2.84^[b].

The data set is the same for the next values; noted with them: LC-MS, method [c]: pH 7.8 with 0.001 molar ammonium hydrogen carbonate solution in water, linear gradient 10% to 95% acetonitrile.
For `Cn1ccnc1C(=NOCc1cccc(N)n1)c1ccccc1` [Example 11], the log p is 1.89^[c];.

Still in this data set, the particulars now being: reversed phase HPLC column, pH 2.7.
As usually defined, the chromatographic logP is lipophilicity estimated from chromatographic retention. `Cn1ncnc1C(=NOCc1cccc(N2C(=O)c3ccccc3C2=O)n1)c1ccccc1` [Example 13, 2-{6-[({[(1-methyl-1H-1,2,4-triazol-5-yl)(phenyl)methylene]amino}oxy)methyl]pyridin-2-yl}-1H-isoindole-1,3(2H)-dione] yielded a chromatographic logP of 2.76. For `CCCCCC(=O)Nc1cccc(CON=C(c2ccccc2)c2ncnn2C)n1` [Example 28, N-{6-[({[(1-methyl-1H-1,2,4-triazol-5-yl)(phenyl)methylene]amino}oxy)methyl]pyridin-2-yl}hexanamide], the chromatographic logP worked out at 3.39.
